The values below come from US12144896B2, “Drug delivery system” (INSERM (INSTITUT NATIONAL DE LA SANTÉ ET DE LA RECHERCHE …, priority 2018, dated 2024).

By IC50 is commonly meant the midpoint of a concentration-inhibition curve. A low value points to greater potency in that assay. As usually defined, the Vss is a proportionality between amount in the body and measured concentration, not a real space. High values mean wide distribution into tissue, low ones little distribution into tissue. By AUC is commonly meant concentration integrated over time. By Cmax is commonly meant the highest concentration seen after dosing.

In series [1] the test system is HT-29 cells. In words: MTS cell viability test on HT-29 cells. To be noted: HT-29, 24 h incubation at 37° C., 0-200 μM. The series is classed as cell-based, Human. Here is the method:
(§1) Human lung alveolar carcinoma A549 cells, provided by Prof. L. Migliore, University of Pisa, were grown in Ham's F12 medium supplemented with 10% Fetal Bovine Serum (FBS), 1 mM Gln, and antibiotics. Human colorectal adenocarcinoma HT-29 cells, provided by Prof. P. Petronini, University of Parma, were grown in DMEM High (glucose 4.5 g/1) supplemented with 10% FBS, 2 mM Gln and antibiotics. Cells were incubated at 37° C. at 5% CO2; after thawing, all cells were used for less than ten passages.
(§2) 3.5×10^3 B6KPC3 and A549 cells and 7.5×10^3 HT-29 cells were seeded into 96-well plates. […] After 24 h, cell viability was evaluated through MTS Cell Proliferation Colorimetric Assay Kit (Novus Biologicals, Abingdon, UK). […] In preliminary experiments the time of exposure to MTS (1 h for HT-29 and 3 h for A549 cells) was determined according to the metabolism of each cell type. Absorbance was measured at 492 nm with a microplate reader (EnSpire® Multimode Plate Reader, Perkin Elmer, Boston, Mass., USA).
(§3) Cell viability (CV) percentage was evaluated through the following formula: CV (%)=(Absorbance(treated wells))/(Absorbance(control wells))×100 with Absorbance (control wells) considered the absorbance of untreated cells incubated in medium without drugs. […]
(§4) Oxaliplatin, DACHPt, and Blank nanoparticles are thus used as controls. Viability was then evaluated with the MTS assay (see Material and Methods). […]
Background: Tetrazolium assays rely on reduction of a dye to a coloured formazan, in cell work by metabolically active cells.

For series [2], the system named is B6KPC3 cells. In words: MTS cell viability test on B6KPC3 cells. In kind it is cell-based. To be noted: B6KPC3, 24 h incubation at 37° C., 0-200 μM. Here is the method:
3.5×10^3 B6KPC3 and A549 cells and 7.5×10^3 HT-29 cells were seeded into 96-well plates. […] After 24 h, cell viability was evaluated through MTS Cell Proliferation Colorimetric Assay Kit (Novus Biologicals, Abingdon, UK). Briefly, medium was removed, and 100 μL of MTS solution diluted 1:10 in serum-free medium were added in each well. In preliminary experiments the time of exposure to MTS (1 h for HT-29 and 3 h for A549 cells) was determined according to the metabolism of each cell type. Absorbance was measured at 492 nm with a microplate reader (EnSpire® Multimode Plate Reader, Perkin Elmer, Boston, Mass., USA).
Cell viability (CV) percentage was evaluated through the following formula: CV (%)=(Absorbance(treated wells))/(Absorbance(control wells))×100 with Absorbance (control wells) considered the absorbance of untreated cells incubated in medium without drugs. G.3 Results for Viability Studies on HT-29, A549 and B6KPC3 Cells: MTS Test
Oxaliplatin, DACHPt, and Blank nanoparticles are thus used as controls. Viability was then evaluated with the MTS assay (see Material and Methods). Data were expressed as % of control (untreated cells). Data are means±SD of two experiments with 3 determinations each.

Series [3] concerns A549 cells. Description: MTS cell viability test on A549 cells. In kind it is cell-based, Human. To be noted: A549, 24 h incubation at 37° C., 0-200 μM. Here is the method:
as §1, §2, §3, §4

In series [4] the test system is multicellular HT116 spheroids. In words: Multicellular tumor spheroid (MCTS) volume follow-up. In kind it is cell-based. The source says:
Multi cellular tumor spheroids (MCTS) were formed according to a previous published method [Virgone-Carlotta A, Lemasson M, Mertani H C, et al. In-depth phenotypic characterization of multicellular tumor spheroids: Effects of 5-Fluorouracil. PLOS ONE. 2017; 12(11):e0188100. doi: 10.1371/journal.pone.0188100]. Briefly, MCTS were formed using HTC-116 cell line in Ultra Low Attachment (ULA) 96 wells Round-Bottom plate (Greiner bio-one) to avoid cell-substrate attachment. The cells were trypsinized and were counted using a Malassez grid in order to obtain 2,400 cells per milliliter. This concentration of cells (i.e., 480 cells per well in a volume of 200 μL) was chosen in order to obtain a single spheroid per well, with a spheroid diameter at the end of the experimentation not exceeding 500 μm. The plate was centrifuged for 5 minutes at 1,200 g at room temperature to initiate the formation of spheroids. The plate was placed in the incubator under agitation at 37° C. and 5% CO2 during the whole experiment. At the end of the first day after seeding, 100 μL of culture medium was added to ensure proper 3D growth. […] The treatment was renewed during 3 days. Results are shown on FIGS. 4 to 6.
Blank NP were also used to assess nonspecific toxicity that could arise from the system. MCTS were monitored at day 0, 1, 2, 3, 4, and 7 day post treatment. Eight spheroids (n=8) were probed at each concentration (5, 25 and 50 μM). A ring of detaching cells appeared spontaneously after one day of treatment. The spheroids were transferred into new well plates to eliminate mechanically this uncohesive peripheral cell layer and to renew the drug and culture medium. Therefore, the reduction in volume monitored during treatment arose from a loss of viability as well as from a loss of cohesiveness.
We performed edge detection using a sobel threshold for each spheroid using the Image J software. The resulting binary images were fitted to an ellipse of major (LM) and minor (Lm) axes using the ImageJ “Analyse Particles” plugins. From this, a mean diameter was calculated, D=(LM+Lm)/2. The volume V was then determined assuming that the spheroids are spherical V=πD3/6. Results are shown on FIG. 7.
The volume of MCTS was evaluated from phase contrast microscopy images as a readout of cytotoxic effect. The data reported in FIGS. 4-6 represent normalized MCTS volume for different treatments with respect to the control volume (MCTS not treated). Three different drug concentrations were tested: 5, 25 and 50 μM.

For series [5] the following is noted: clinical studies, end of a 2-hr infusion; cited from earlier work.
Series [6] is described as follows: Pharmacokinetics after IV bolus injection, two-compartment analysis of plasma Pt. To be noted: mice, 35 μg Pt/mice.
Procedure: At specific time points, 15, 30 min, 1, 1.5, 3, 5, 8 and 12 h post dose, 200 μl of blood was taken and separated from plasma. Pt content was detected using ICP/MS.
A first-order, two-compartment model with bolus administration, expressed in terms of CL and V was applied to fit the data, using 1/yhat^2 as weighting function.
Based on the profile obtained (FIGS. 3A and 3B), the data were analyzed using a two-compartmental model.

Several values for one entry are separate records, joined by “and”; a condition that tells them apart may be missing. Equal values may be shown once.

In series [1], `NC1CCCCC1N.[Pt+2]` (stereo not shown) [DACHPt, di-aqua(1,2-diaminocyclohexane)platinum(II)] displayed a half-inhibitory concentration (IC50) of 39 µM.
On to “(R,R)-1,2-diaminocyclohexane(ethanedioato-O,O)platinum [Oxaliplatin]”, for which the 50% inhibitory concentration (IC50) in series [1] came to 74 µM; in series [2], 23 µM; in series [3] it was 11 µM; in series [3] (listed as oxaliplatin reference solution), 12 µM. Moreover, the “size reduction (%) of spheroids compared to control spheroids at the same day” value (“size reduction (%) of spheroids” below) in series [4] (5 μM, Day 0) was −1.21%; in series [4] (5 μM, Day 1), 4.52%; in series [4] (5 μM, Day 2), 15.86%; in series [4] (5 μM, Day 3), 24.88%; in series [4] (5 μM, Day 4) it was 28.73%; in series [4] (25 μM, Day 0), 0.59%. The “size reduction (%) of spheroids” value in series [4] (25 μM, Day 1) worked out at 16.06%; in series [4] (25 μM, Day 2), 29.27%; in series [4] (25 μM, Day 3), 40.23%; in series [4] (25 μM, Day 4) it was 45.93%; in series [4] (25 μM, Day 7) it was 52.04%; in series [4] (50 μM, Day 0) it was 0.62%. For the same compound, the “size reduction (%) of spheroids” value in series [4] (50 μM, Day 1) worked out at 16.78%; in series [4] (50 μM, Day 2) it was 32.53%; in series [4] (50 μM, Day 3), 44.17%; in series [4] (50 μM, Day 4), 48.93%; in series [4] (50 μM, Day 7), 71.67%. In addition, the “appearance of treated spheroids on photographs” value in series [4] (50 μM, FIG. 7) was “few cells are still present and formed aggregates”. Moreover, the “administered platinum present in the systemic circulation” value in series [5] was 15%. In series [6], this compound returned an AUMC of 65.1 ± 23.8 hr*hr*mg/L. Also, the “K12 (rate constant central to peripheral compartment)” value in series [6] amounted to 4.14 ± 0.72 h⁻¹; in series [6] (listed as oxaliplatin solution), 4.14 h⁻¹. Besides, the “K21 (rate constant peripheral to central compartment)” value in series [6] turned out to be 0.398 ± 0.054 h⁻¹; in series [6] (listed as oxaliplatin), 0.398 h⁻¹. This compound returned a Q in series [6] of 0.060 ± 0.008 L/h. The Vc in series [6] is 0.014 ± 0.004 L; in series [6] (listed as oxaliplatin solution), 0.014 L. Further, the Vp in series [6] was determined as 0.15 ± 0.02 L; in series [6] (listed as oxaliplatin solution), 0.150 L. The compound also displayed a distribution volume (Vss) in series [6] of 0.165 L. Moreover, the area under the curve (AUC) in series [6] (plasma) was found to be 3760 ng·h/mL. In addition, in series [6] (plasma), the “Alpha_HL (distribution half-life)” value was found to be 8.1 min. This compound showed a CL in series [6] (plasma clearance) of 0.010 L/h. Besides, in series [6] (plasma, listed as oxaliplatin solution), the “Beta_HL (elimination half-life)” value was 13.6 h and 13 h. In series [6] (time 0 hr), the Cmax came out at 2480 ng/mL.
